Measured values from patent US11571378B2, “Skin care composition and method of using the same” (The Procter & Gamble Company, priority 2021, dated 2023).
No end group written: not given here.

Legend:
PPARA [SEQ ID NO: 2] = test: Gene Modulation Assay, PPARA expression (qPCR); assay type: cell-based
Description: (§1) This method provides a way to measure the ability of a compound or material to modulate the expression of a target gene such as PPARA [SEQ ID NO: 2] or MSMO1 [SEQ ID NO: 3]. • Cells: tert keratinocytes (tKC)
(§2) BJ Fibroblasts • Plating: Cells are plated the day before treatment. • For tert keratinocytes: 100,000 cells/well in 2 ml volume of medium/well for 12-well plates (e.g., Collagen I coated plates, Corning cat #356500), or 50,000 cells/well in 1 ml volume of medium/well for 24-well plates. • For BJ fibroblasts: 88,000 cells/well in 2 ml volume of medium/well for 12-well plates (e.g., Corning cat #3512), or 44,000 cells/well in 1 ml volume of medium/well for 24-well plates. • Medium: For tert keratinocytes: EpiLife (e.g., Thermo Fisher Scientific cat #MEPI500CA+HKGS (e.g., Thermo Fisher Scientific cat #S-001-5). • For BJ Fibroblasts: EMEM (e.g., ATCC cat #30-2003)+10% FBS (e.g., HyClone cat #SH30071.02).
(§3) Treatments are made in media and aliquoted to dose plates. When it is time to treat cells, all plates of cells are removed from the incubator at the same time. Working with one plate at a time, media is removed and treatment is added, as follows: • Media is decanted from plate of cells. • Inverted plate is blotted briefly on paper towels. • Lid is put back onto plate and plate is moved into biosafety cabinet. • Treatments are transferred from dose plate to plate of cells, one column at a time, using a multichannel pipette. Once all plates have been treated, they are moved into incubator at 37° C., with 5% CO2 and 90% humidity. About 15-30 min before the end of the treatment period, cells from representative wells of each treatment are observed via microscope, then plates are returned to the incubator. When treatment time is complete, all plates are removed from incubator. Media is decanted from each plate, and plates are blotted on paper towels. 350 ul Qiagen Buffer RLT is added to each well to lyse cells, and lysates are transferred to 2 ml Eppendorf tubes and stored at −20° C. until ready for genomics.
(§4) Cell lysates are thawed at 4° C. and then isolated using the Biomek FxP and the RNAdvance Tissue Isolation kit (Beckman Coulter, p/n A32646). The resulting RNA is quantified using the Nandrop 8000 (Nanodrop, ND-8000). cDNA is generated using 500 ng of Total RNA and Applied Biosystems High Capacity cDNA with Reverse Transcription kit (Applied Biosystems p/n 4368814). cDNA, assays, and dilutions of PrimeTime GeneExpression MasterMix (IDT, p/n ? ) are plated onto a Wafergen MyDesign SmartChip (TakaraBio, p/n 640036) using the Wafergen Nanodispenser. The chip is then loaded into the SmartChip cycler and qPCR performed using the following PCR conditions:
(§5) Hold stage: 50° C. for 2 minutes (warm up), then 95° C. for 10 minutes.
(§6) PCR stage (40 cycles): 95° C. for 15 seconds, then 60° C. for 1 minute. Export data in .txt file format for analysis.
(§7) Test compositions and control compositions were prepared as described above in the Gene Modulation Assay and tested accordingly. The pal-KT used in this example is PALESTRINA brand pal-KT from Sederma (France), and the ac-PPYL is SYNIORAGE brand tetrapeptide from BASF Care Creations (New Jersey). P+A refers to the combination of pal-KT (P), and ac-PPYL (A) [SEQ ID NO: 1].
(§8) Synergy Factor is calculated as: […]
(§9) A synergy factor greater than 1.00 with p-value ≤0.05 indicates a statistically significant synergistic effect. Preferred synergy factors are 1.3 or greater.
(§10) In this test, the amino acids from pal-KT were rearranged to form a new dipeptide, pal-TK. Test compositions and control compositions were prepared as described above in the Gene Modulation Assay and tested accordingly. Fold change factor is calculated as.
(§11) [formula] A fold change factor of greater than 1 is desired, and a fold change factor of 1.3 or greater is preferred.

MSMO1 [SEQ ID NO: 3] = test: Gene Modulation Assay, MSMO1 expression (qPCR); assay type: cell-based
Description: as §1, §2, §3, §4, §5, §6, §7, §8, §9, §10, §11

[1] = pal-KT + ac-PPYL relative to pal-TK + ac-PPYL, all peptides at 1 ppm

Row | Substance | Fold change vs. control, Ac-PPYL (PPARA [SEQ ID NO: 2]; Ac-PPYL 0.0135 ppm alone) | Fold change vs. control, Ac-PPYL (PPARA [SEQ ID NO: 2]; Ac-PPYL 1 ppm alone) | Fold change vs. control, Ac-PPYL (PPARA [SEQ ID NO: 2]; Ac-PPYL 13.5 ppm alone) | Fold change vs. control, Ac-PPYL (PPARA [SEQ ID NO: 2]; Ac-PPYL 40.5 ppm alone) | Fold change vs. control, Ac-PPYL (MSMO1 [SEQ ID NO: 3]; Ac-PPYL 0.0135 ppm alone) | Fold change vs. control, Ac-PPYL (MSMO1 [SEQ ID NO: 3]; Ac-PPYL 1 ppm alone) | Fold change vs. control, Ac-PPYL (MSMO1 [SEQ ID NO: 3]; Ac-PPYL 13.5 ppm alone) | Fold change vs. control, Ac-PPYL (MSMO1 [SEQ ID NO: 3]; Ac-PPYL 40.5 ppm alone) | Fold change vs. control, Pal-KT (PPARA [SEQ ID NO: 2]; Pal-KT 1 ppm alone) | Fold change vs. control, Pal-KT (PPARA [SEQ ID NO: 2]; Pal-KT 7.5 ppm alone) | Fold change vs. control, Pal-KT (PPARA [SEQ ID NO: 2]; Pal-KT 15 ppm alone) | Fold change factor (PPARA [SEQ ID NO: 2]; [1]) | Fold change vs. control, Pal-KT (MSMO1 [SEQ ID NO: 3]; Pal-KT 1 ppm alone) | Fold change vs. control, Pal-KT (MSMO1 [SEQ ID NO: 3]; Pal-KT 7.5 ppm alone) | Fold change vs. control, Pal-KT (MSMO1 [SEQ ID NO: 3]; Pal-KT 15 ppm alone) | Fold change factor (MSMO1 [SEQ ID NO: 3]; [1])
1 | acetyl tetrapeptide-11 (Ac-PPYL) [acetylated tetrapeptide ac-PPYL, available as SYNIORAGE from BASF Care Creations] | 0.70 | 0.69 | 0.67 | 0.71 | 0.377 | 0.496 | 0.510 | 0.560 |  |  |  |  |  |  |  | 
2 | palmitoyl dipeptide-7 [Pal-KT] |  |  |  |  |  |  |  |  | 1.26 | 1.43 | 1.59 | greater than 1.3 | 4.32 | 4.69 | 5.63 | greater than 1.3
